Source: PubChem BioAssay AID248 (DTP/NCI, 2004)
“And” between values parts separate entries of the source, which are not always exact repeats. Identical values can stand only once. Toxic doses and inconclusive results are not listed. Cut-off read from the data, not from the text of the source: active = T/C of 150% or more; inactive = T/C below 125%.

Tested on: L1210 leukemia ip in BDF1 mice, survival T/C
Test: NCI In Vivo Anticancer Drug Screen. Data for tumor model L1210 Leukemia (intraperitoneal) in B6D2F1 (BDF1) mice
Details: endpoint: mean survival time, higher = longer survival
Outline: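 Tumor was transplanted into mice, which were then dosed with test compound or vehicle alone. Survival was recorded for each group, and the treated figure was expressed relative to the control figure.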

[1] = dose: 100.0 mg/kg/injection, schedule: Q01DX009 (ip), vehicle: saline with Tween-80
[2] = dose: 100.0 mg/kg/injection, schedule: Q04DX003 (ip), vehicle: saline with Tween-80
[3] = dose: 200.0 mg/kg/injection, schedule: Q01DX009 (ip), vehicle: saline with Tween-80
[4] = dose: 200.0 mg/kg/injection, schedule: Q04DX003 (ip), vehicle: saline with Tween-80
[5] = dose: 400.0 mg/kg/injection, schedule: Q01DX009 (ip), vehicle: saline with Tween-80
[6] = dose: 400.0 mg/kg/injection, schedule: Q04DX003 (ip), vehicle: saline with Tween-80
[7] = dose: 100.0 mg/kg/injection, schedule: Q01DX001 (ip), vehicle: saline
[8] = dose: 200.0 mg/kg/injection, schedule: Q01DX001 (ip), vehicle: saline
[9] = dose: 400.0 mg/kg/injection, schedule: Q01DX001 (ip), vehicle: saline
[10] = dose: 100.0 mg/kg/injection, schedule: Q04DX003 (ip), vehicle: Klucel (hydroxypropylcellulose) (HPC)

Measured: T/C

COc1ccc(Sc2cccc3c2C(C)(O)c2c(Sc4ccc(OC)cc4)cccc2C3(C)O)cc1 (stereo not drawn)
inactive: [1] 100 % of control | [2] 97 % of control | [3] 92 % of control | [4] 95 % of control | [5] 92 % of control | [6] 93 % of control

CCCCOc1c(OCCCC)c(=O)c1=O
inactive: dose: 178.0 mg/kg/injection, schedule: Q01DX001 (ip), vehicle: saline 106 % of control | dose: 267.0 mg/kg/injection, schedule: Q01DX001 (ip), vehicle: saline 106 % of control

Cc1cc(C)c(C(=O)O)c(C)c1
inactive: [7] 100 % of control | [1] 93 % of control | [8] 96 % of control | [3] 94 % of control | [9] 96 % of control | [5] 94 % of control

CC(=O)OCC1C2CCC(C2)C1C (stereo not drawn)
inactive: dose: 75.0 mg/kg/injection, schedule: Q01DX001 (ip), vehicle: acetone 95 % of control | dose: 150.0 mg/kg/injection, schedule: Q01DX001 (ip), vehicle: acetone 101 % of control | dose: 300.0 mg/kg/injection, schedule: Q01DX001 (ip), vehicle: acetone 114 % of control

c1cc[c]([Ge]([CH2][CH2][Sn]([c]2ccccc2)([c]2ccccc2)[c]2ccccc2)([c]2ccccc2)[c]2ccccc2)cc1
inactive: dose: 100.0 mg/kg/injection, schedule: Q04DX002 (ip), vehicle: saline with Tween-80 102 % of control | dose: 200.0 mg/kg/injection, schedule: Q04DX002 (ip), vehicle: saline with Tween-80 98 % of control | dose: 400.0 mg/kg/injection, schedule: Q04DX002 (ip), vehicle: saline with Tween-80 98 % of control

O=C(CCCCl)CC(O)(C(F)(F)F)C(F)(F)F
inactive: [1] 104 % of control | [2] 101 % of control | [3] 93 % of control | [4] 94 % of control | [6] 100 % of control

CN(C)N(P(N)(Cl)(c1ccccc1)c1ccccc1)P(N)(Cl)(c1ccccc1)c1ccccc1
inactive: dose: 5.0 mg/kg/injection, schedule: Q01DX001 (ip), vehicle: steriod suspending solution 100 % of control | dose: 10.0 mg/kg/injection, schedule: Q01DX001 (ip), vehicle: steriod suspending solution 105 % of control | dose: 20.0 mg/kg/injection, schedule: Q01DX001 (ip), vehicle: steriod suspending solution 97 % of control | dose: 40.0 mg/kg/injection, schedule: Q01DX001 (ip), vehicle: steriod suspending solution 103 % of control | dose: 80.0 mg/kg/injection, schedule: Q01DX001 (ip), vehicle: steriod suspending solution 94 % of control

Sc1ccc(Cl)cc1.[Pb]
inactive: dose: 25.0 mg/kg/injection, schedule: Q01DX009 (ip), vehicle: gum acacia 94 % of control | dose: 25.0 mg/kg/injection, schedule: Q04DX002 (ip), vehicle: gum acacia 99 % of control | dose: 50.0 mg/kg/injection, schedule: Q01DX009 (ip), vehicle: gum acacia 94 % of control | dose: 50.0 mg/kg/injection, schedule: Q04DX002 (ip), vehicle: gum acacia 99 % of control | dose: 100.0 mg/kg/injection, schedule: Q04DX002 (ip), vehicle: gum acacia 96 % of control and 91 % of control | dose: 200.0 mg/kg/injection, schedule: Q04DX002 (ip), vehicle: gum acacia 102 % of control | dose: 400.0 mg/kg/injection, schedule: Q04DX002 (ip), vehicle: gum acacia 109 % of control

C=CCc1cc(CNC(C)C)c(O)c(OC)c1
inactive: dose: 25.0 mg/kg/injection, schedule: Q04DX003 (ip), vehicle: Klucel (hydroxypropylcellulose) (HPC) 96 % of control | dose: 50.0 mg/kg/injection, schedule: Q04DX003 (ip), vehicle: Klucel (hydroxypropylcellulose) (HPC) 88 % of control | [10] 101 % of control and 92 % of control

O=[N+]([O-])c1cc(C(F)(F)F)cc([N+](=O)[O-])c1NN=C1CCCCC1
inactive: dose: 100.0 mg/kg/injection, schedule: Q01DX009 (ip), vehicle: gum acacia 93 % of control | dose: 200.0 mg/kg/injection, schedule: Q01DX009 (ip), vehicle: gum acacia 91 % of control | dose: 400.0 mg/kg/injection, schedule: Q01DX009 (ip), vehicle: gum acacia 96 % of control

CC/C(=N/NC(N)=O)c1ccccc1Cl
inactive: [7] 97 % of control | [8] 96 % of control | [9] 106 % of control

COc1cc2cc(-c3cc(OC)c(OC)c(OC)c3)c3c(c2cc1OC)CNC3
inactive: dose: 12.5 mg/kg/injection, schedule: Q01DX009 (ip), vehicle: water 103 % of control | dose: 25.0 mg/kg/injection, schedule: Q01DX009 (ip), vehicle: water 93 % of control | dose: 50.0 mg/kg/injection, schedule: Q01DX009 (ip), vehicle: water 97 % of control | dose: 100.0 mg/kg/injection, schedule: Q01DX009 (ip), vehicle: water 102 % of control and 86 % of control | dose: 100.0 mg/kg/injection, schedule: Q04DX003 (ip), vehicle: water 102 % of control | dose: 200.0 mg/kg/injection, schedule: Q04DX003 (ip), vehicle: water 98 % of control | dose: 400.0 mg/kg/injection, schedule: Q04DX003 (ip), vehicle: water 109 % of control

O=[N+]([O-])c1ccc(N/N=C/CCc2ccccc2O)c([N+](=O)[O-])c1
inactive: dose: 50.0 mg/kg/injection, schedule: Q01DX001 (ip), vehicle: saline 112 % of control | [7] 98 % of control | [8] 93 % of control | [9] 98 % of control

C/C(CC(=O)Nc1ccc(Cc2ccc(Cl)cc2)cc1)=N/Nc1ccc([N+](=O)[O-])cc1[N+](=O)[O-]
inactive: [7] 94 % of control | [8] 101 % of control

C(=N\N1CCN(/N=C/c2ccc(-c3ccccc3)cc2)CC1)/c1ccc(-c2ccccc2)cc1
inactive: [7] 94 % of control | [8] 97 % of control | [9] 94 % of control

COC(=O)C1C(C(=O)OC)C2(Cl)C(Cl)=C(Cl)C1(Cl)C2(Br)Br (stereo not drawn)
inactive: dose: 100.0 mg/kg/injection, schedule: Q01DX001 (ip), vehicle: Klucel (hydroxypropylcellulose) (HPC) 101 % of control | dose: 100.0 mg/kg/injection, schedule: Q01DX009 (ip), vehicle: Klucel (hydroxypropylcellulose) (HPC) 104 % of control | [10] 104 % of control | dose: 200.0 mg/kg/injection, schedule: Q01DX001 (ip), vehicle: Klucel (hydroxypropylcellulose) (HPC) 104 % of control | dose: 200.0 mg/kg/injection, schedule: Q01DX009 (ip), vehicle: Klucel (hydroxypropylcellulose) (HPC) 101 % of control | dose: 200.0 mg/kg/injection, schedule: Q04DX003 (ip), vehicle: Klucel (hydroxypropylcellulose) (HPC) 100 % of control | dose: 400.0 mg/kg/injection, schedule: Q01DX001 (ip), vehicle: Klucel (hydroxypropylcellulose) (HPC) 97 % of control | dose: 400.0 mg/kg/injection, schedule: Q01DX009 (ip), vehicle: Klucel (hydroxypropylcellulose) (HPC) 97 % of control | dose: 400.0 mg/kg/injection, schedule: Q04DX003 (ip), vehicle: Klucel (hydroxypropylcellulose) (HPC) 104 % of control

Cc1ncc(CO)c(C2NOCc3ncsc32)c1O (stereo not drawn)
inactive: dose: 6.25 mg/kg/injection, schedule: Q01DX009 (ip), vehicle: saline 89 % of control | dose: 6.25 mg/kg/injection, schedule: Q04DX003 (ip), vehicle: saline 102 % of control | dose: 12.5 mg/kg/injection, schedule: Q01DX001 (ip), vehicle: saline 101 % of control | dose: 12.5 mg/kg/injection, schedule: Q01DX009 (ip), vehicle: saline 97 % of control | dose: 12.5 mg/kg/injection, schedule: Q04DX003 (ip), vehicle: saline 106 % of control | dose: 25.0 mg/kg/injection, schedule: Q01DX001 (ip), vehicle: saline 102 % of control | dose: 25.0 mg/kg/injection, schedule: Q04DX003 (ip), vehicle: saline 93 % of control
